{
  "source": "patent US20050064019A1",
  "about": "“Impregnated, flexible, rawhide pet chews containing antimicrobially active chlorhexdine” (priority 2003, published 2005)",
  "origin": "cited, not measured here",
  "key": {"[1]": {"settings": "rat, in vivo"}, "bacterial spores": {"system": "bacterial spores", "settings": "except at elevated temperatures"}, "[2]": {"settings": "two years continuous use"}},
  "data": [
    {"compound": "[H]/N=C(\\N/C(=N/[H])NCCCCCCNC(=N)NC(=N)Nc1ccc(Cl)cc1)Nc1ccc(Cl)cc1", "note": "[chlorhexidine]", "values": [
      {"measurement": "Tolerance of chlorhexidine in drinking water", "setting": "[1]", "value": "without detectable interference with growth and reproduction"},
      {"measurement": "Activity against bacterial spores", "setting": "bacterial spores", "value": "inactive"},
      {"measurement": "Solubility in water", "value": "practically insoluble in water"},
      {"measurement": "Side effects in long term trials", "setting": "[2]", "value": "no systemic or serious local side effects"},
      {"measurement": "Activity against fungal spores", "setting": "fungal spores", "value": "inactive"}
    ]}
  ]
}
